# Assay results: US11795177B2, “Substituted quinoline analogs as aldehyde dehydrogenase 1A1 (ALDH1A1) inhibitors” (THE UNITED STATES OF AMERICA, AS REPRESENTED BY THE …, priority 2017, dated 2023)
# Structures can show the parent of a compound that is named as a salt.
# Key:
# MIA PaCa-2 cells = assay: MIA PaCa2 cell-based assay (1,536-well high-content imaging ALDEFLUOR assay); parameters: species or system human; conditions: Homo sapiens, 0.5 h, ALDEFLUOR BAAA substrate 500 nM, 30 minutes
# Method in brief: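 High-content ALDEFLUOR imaging readout: BAA-retaining cells in FITC channel scored against Hoechst-counted nuclei. Before imaging, MIA PaCa-2 cells seeded at 1,000 per well received final 500 nM BAAA and 0.5 nM Hoechst with compounds in 16-point series (1.4 nM to 47.8 μM), 30 min, 37° C.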
# ALDH1A1 enzyme = biological target: T1, ALDH1A1 enzyme (Homo sapiens, UniProt P00352); assay: ALDH1A1 enzymatic assay (in vitro); assay type: biochemical; conditions: ALDH1A1 enzyme 20 nM, NAD+ 1 mM, propionaldehyde 80 μM; read-out: ALDH1A1 IC50
# T1 sequence (P00352 1-501): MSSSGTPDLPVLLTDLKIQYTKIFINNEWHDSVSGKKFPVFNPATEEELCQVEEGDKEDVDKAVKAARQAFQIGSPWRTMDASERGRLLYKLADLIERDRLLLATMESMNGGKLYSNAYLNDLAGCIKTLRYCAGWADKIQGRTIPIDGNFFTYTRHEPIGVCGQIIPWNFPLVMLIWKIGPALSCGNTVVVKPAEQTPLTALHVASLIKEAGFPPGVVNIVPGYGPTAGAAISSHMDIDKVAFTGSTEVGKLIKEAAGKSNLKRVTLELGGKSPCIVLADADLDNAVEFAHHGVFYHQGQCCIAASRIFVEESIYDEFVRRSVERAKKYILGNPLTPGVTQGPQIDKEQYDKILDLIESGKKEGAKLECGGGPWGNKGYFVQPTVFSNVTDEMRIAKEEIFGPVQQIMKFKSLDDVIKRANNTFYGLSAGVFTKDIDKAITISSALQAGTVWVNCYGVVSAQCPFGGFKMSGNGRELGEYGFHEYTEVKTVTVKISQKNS
# Method in brief: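 ALDH1A1 (20 nM final) in 100 mM HEPES pH 7.5, 0.01% Tween 20 was preincubated 15 min at RT with compound (968 pM–57.2 μM final), then started with 1 mM NAD+ and 80 μM propionaldehyde. NADH fluorescence (ex 340/em 450 nm) followed kinetically for 10 min; change normalized to no-inhibitor and no-enzyme controls for percent inhibition and curve fitting.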
IC50 (MIA PaCa-2 cells) [nM],IC50 (ALDH1A1 enzyme) [nM],SMILES
> 10000,500 to 1000,"COc1ccc2ncc(C(=O)N3CCC(F)(F)CC3)c(N3CCC4(CC3)OCCO4)c2c1 [Example 32, (4,4-difluoropiperidin-1-yl)(6-methoxy-4-(1,4-dioxa-8-azaspiro[4.5]decan-8-yl)quinolin-3-yl)methanone]"
1000 to 10000,< 500,"CNC(=O)Cn1cc(NC(=O)c2cnc3ccc(F)cc3c2-c2ccc(C3(C#N)CC3)cc2)cn1 [Cpd. 355, 4-(4-(1-cyanocyclopropyl)phenyl)-6-fluoro-N-(1-(2-(methylamino)-2-oxoethyl)-1H-pyrazol-4-yl)quinoline-3-carboxamide]"
< 500,< 500,"CN(C)C(=O)N1CCN(C(=O)c2cnc3ccsc3c2-c2ccc(C3(C#N)CC3)cc2)CC1 [Example 281, 4-(7-(4-(1-cyanocyclopropyl)phenyl)thieno[3,2-b]pyridine-6-carbonyl)-N,N-dimethylpiperazine-1-carboxamide]"
> 10000,1000 to 10000,"C[C@@H]1CN(C(=O)c2cnc3ccc(F)cc3c2N2CCC(C)(C#N)CC2)CCN1C(=O)C1CC1 [Example 224, (R)-1-(3-(4-(cyclopropanecareonyl)-3-methylpiperazine-1-carbonyl)-6-fluoroquinolin-4-yl)-4-methylpiperidine-4-carbonitrile]"
1000 to 10000,< 500,"CC1(C#N)CCN(c2c(C(=O)N3CCN(C(=O)C4CC4)CC3)cnc3c(F)cc(F)cc23)CC1 [Example 125, 1-(3-(4-(cyclopropanecarbonyl)piperazine-1-carbonyl)-6,8-difluoroquinolin-4-yl)-4-methylpiperidine-4-carbonitrile]"
> 10000,500 to 1000,"CCNC(=O)N1CCN(C(=O)c2cnc3c(F)cc(F)cc3c2N2CCC(C)(C#N)CC2)CC1 [Example 145, 4-(4-(4-cyano-4-methylpiperidin-1-yl)-6,8-difluoroquinoline-3-carbonyl)-N-ethylpiperazine-1-carboxamide]"
500 to 1000,< 500,"N#CC1(c2ccc(-c3c(C(=O)Nc4cnn(CC(N)=O)c4)cnc4ccc(F)cc34)cc2)CC1 [Cpd. 342, N-(1-(2-amino-2-oxoethyl)-1H-pyrazol-4-yl)-4-(4-(1-cyanocyclopropyl)phenyl)-6-fluoroquinoline-3-carboxamide]"
1000 to 10000,< 500,"O=C(c1cnc2ccc(F)cc2c1N1CCC2(CC1)C(=O)Cc1ccccc12)N1CCN(C(=O)C2CC2)CC1 [Example 246, 1′-(3-(4-(cyclopropanecarbonyl)piperazine-1-carbonyl)-6-fluoroquinolin-4-yl)spiro[indene-1,4′-piperidin]-2(3H)-one]"
> 10000,< 500,"O=C(c1cnc2ccc(F)cc2c1N1CCC2(CC1)OCCO2)N1CCC(F)(F)CC1 [Example 50, (4,4-difluoropiperidin-1-yl)(6-fluoro-4-(1,4-dioxa-8-azaspiro[4.5]decan-8-yl)quinolin-3-yl)methanone]"
1000 to 10000,1000 to 10000,"COc1ccc2ncc(C(=O)N3CCN(C(=O)C4CC4)CC3)c(N3CCN(S(C)(=O)=O)CC3)c2c1 [Example 19, (4-(cyclopropanecarbonyl)piperazin-1-yl)(6-methoxy-4-(4-(methylsulfonyl)piperazin-1-yl)quinolin-3-yl)methanone, TFA]"
1000 to 10000,< 500,"C[C@@H]1CN(C(=O)C2CC2)CCN1C(=O)c1cnc2ccc(F)cc2c1N1CCC(C)(C#N)CC1 [Example 239, (R)-1-(3-(4-(cyclopropanecarbonyl)-2-methylpiperazine-1-carbonyl)-6-fluoroquinolin-4-yl)-4-methylpiperidine-4-carbonitrile]"
< 500,< 500,"CN(C)C(=O)N1CCN(C(=O)c2cnc3ccc(Cl)cc3c2N2CCC(C#N)(c3ccccc3)CC2)CC1 [Cpd. 312, 4-(6-chloro-4-(4-cyano-4-phenylpiperidin-1-yl)quinoline-3-carbonyl)-N,N-dimethylpiperazine-1-carboxamide]"
< 500,< 500,"N#CC1(c2ccccc2)CCN(c2c(C(=O)N3CCC(O)(C4CC4)CC3)cnc3ccc(F)cc23)CC1 [Cpd. 348, 1-(3-(4-cyclopropyl-4-hydroxypiperidine-1-carbonyl)-6-fluoroquinolin-4-yl)-4-phenylpiperidine-4-carbonitrile]"
1000 to 10000,< 500,"CCNC(=O)N1CCN(C(=O)c2cnc3ccc(OC)cc3c2N2CCC3(CC2)OCCO3)CC1 [Example 43, N-ethyl-4-(6-methoxy-4-(1,4-dioxa-8-azaspiro[4.5]decan-8-yl)quinoline-3-carbonyl)piperazine-1-carboxamide]"
1000 to 10000,< 500,"CC1(C#N)CCN(c2c(C(=O)N3CCN(S(=O)(=O)C4CC4)CC3)cnc3ccc(Cl)cc23)CC1 [Example 120, 1-(6-chloro-3-(4-(cyclopropylsulfonyl)piperazine-1-carbonyl)quinolin-4-yl)-4-methylpiperidine-4-carbonitrile]"
< 500,< 500,"CN(C)C(=O)N1CCN(C(=O)c2cnc3ccc(F)cc3c2-c2ccc(C(C)(C)C#N)cc2)CC1 [Example 263, 4-(4-(4-(2-cyanopropan-2-yl)phenyl)-6-fluoroquinoline-3-carbonyl)-N,N-dimethylpiperazine-1-carboxamide]"
< 500,< 500,"N#CC1(c2ccc(-c3c(C(=O)N[C@H]4CC[C@H](O)CC4)cnc4ccc(F)cc34)cc2)CC1 [Cpd. 338, 4-(4-(1-cyanocyclopropyl)phenyl)-6-fluoro-N-((1R,4R)-4-hydroxycyclohexyl)quinoline-3-carboxamide]"
1000 to 10000,< 500,"O=C(c1cnc2ccc(F)cc2c1N1CCC2(CCOC2=O)CC1)N1CCN(C(=O)C2CC2)CC1 [Example 248, 8-(3-(4-(cyclopropanecarbonyl)piperazine-1-carbonyl)-6-fluoroquinolin-4-yl)-2-oxa-8-azaspiro[4.5]decan-1-one]"
< 500,< 500,"CC(C)(C#N)c1ccc(-c2c(C(=O)N3CCC(S(C)(=O)=O)CC3)cnc3ccc(F)cc23)cc1 [Example 259, 2-(4-(6-fluoro-3-(4-(methylsulfonyl)piperidine-1-carbonyl)quinolin-4-yl)phenyl)-2-methylpropanenitrile]"
1000 to 10000,< 500,"CS(=O)(=O)N1CCN(C(=O)c2cnc3c(F)c(F)c(F)cc3c2N2CCC3(CC2)OCCO3)CC1 [Example 134, (4-(methylsulfonyl)piperazin-1-yl)(6,7,8-trifluoro-4-(1,4-dioxa-8-azaspiro[4.5]decan-8-yl)quinolin-3-yl)methanone]"
1000 to 10000,< 500,"CCS(=O)(=O)N1CCN(C(=O)c2cnc3c(F)cc(F)cc3c2N2CCC(C)(C#N)CC2)CC1 [Example 166, 1-(3-(4-(ethylsulfonyl)piperazine-1-carbonyl)-6,8-difluoroquinolin-4-yl)-4-methylpiperidine-4-carbonitrile]"
> 10000,> 10000,"COc1ccc2ncc(C(=O)N3CCN(C(=O)C4CC4)CC3)c(N3CCC(C#N)CC3)c2c1 [Example 25, 1-(3-(4-(cyclopropanecarbonyl)piperazine-1-carbonyl)-6-methoxyquinolin-4-yl)piperidine-4-carbonitrile]"
> 10000,< 500,"O=C(c1cnc2ccc(F)cc2c1N1CCC2(CC1)OCCO2)N1CCN(C(=O)N2CCCC2)CC1 [Example 150, (6-fluoro-4-(1,4-dioxa-8-azaspiro[4.5]decan-8-yl)quinolin-3-yl)(4-(pyrrolidine-1-carbonyl)piperazin-1-yl)methanone]"
< 500,< 500,"CN(C)S(=O)(=O)N1CCN(C(=O)c2cnc3ccc(Cl)cc3c2-c2ccc(C3(C#N)CC3)cc2)CC1 [Example 298, 4-(6-chloro-4-(4-(1-cyanocyclopropyl)phenyl)quinoline-3-carbonyl)-N,N-dimethylpiperazine-1-sulfonamide]"
1000 to 10000,< 500,"CCNC(=O)N1CCN(C(=O)c2cnc3c(F)cc(F)cc3c2N2CCC3(CC2)OCCO3)CC1 [Example 141, 4-(6,8-difluoro-4-(1,4-dioxa-8-azaspiro[4.5]decan-8-yl)quinoline-3-carbonyl)-N-ethylpiperazine-1-carboxamide]"
1000 to 10000,500 to 1000,"CC(C)(O)C1(c2ccccc2)CCN(c2c(C(=O)N3CCN(S(C)(=O)=O)CC3)cnc3ccc(F)cc23)CC1 [Example 258, (6-fluoro-4-(4-(2-hydroxypropan-2-yl)-4-phenylpiperidin-1-yl)quinolin-3-yl)(4-(methylsulfonyl)piperazin-1-yl)methanone]"
